Reference: patent US20240336573A1, “COMPOUND FOR THE TREATMENT AND PROPHYLAXIS OF INFECTIOUS DISEASES” (Eberhard Karls Universität Tübingen Medizinische Fakultät, priority 2021, published 2024)
Where two headings read alike, the source gives them in different places.

Key:
SurA [1] = molecular target: T1, SurA (Escherichia coli, UniProt P0ABZ6); assay: Luciferase-based SurA activity assay (primary assay, in-house); format: biochemical, E. coli; design: key to primary assay SurA: SurA inhibition = +; no SurA inhibition = 0; conditions: for primary assay SurA: shelf derivatives evaluation
T1 sequence (P0ABZ6 21-428): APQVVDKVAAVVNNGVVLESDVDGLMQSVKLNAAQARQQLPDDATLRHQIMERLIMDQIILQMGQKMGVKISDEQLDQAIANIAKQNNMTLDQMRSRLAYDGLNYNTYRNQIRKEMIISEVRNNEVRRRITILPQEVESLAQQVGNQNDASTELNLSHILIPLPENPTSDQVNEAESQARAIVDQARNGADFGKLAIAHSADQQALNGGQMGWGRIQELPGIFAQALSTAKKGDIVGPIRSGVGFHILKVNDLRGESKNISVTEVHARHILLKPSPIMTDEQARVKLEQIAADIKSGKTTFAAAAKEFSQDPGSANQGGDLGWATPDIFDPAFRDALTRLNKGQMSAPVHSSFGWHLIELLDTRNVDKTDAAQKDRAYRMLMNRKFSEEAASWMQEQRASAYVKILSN
Text: The biological function of SurA is to bind and to keep outer membrane proteins that have reached the periplasm in an unfolded but folding-competent state. The inventors' assay is based on this interaction and uses firefly Luciferase (fLuc) as a non-native substrate. […] This is exploited in the assay (FIG. 3). The loss of tertiary structure of fLuc leads to the exposure of binding sites for SurA. It is known that SurA binds selectively to a special group of substrates. These substrates have in common the specific patterns of hydrophobic amino acids that are highly enriched in the beta strands of integral outer membrane proteins. These motifs are present in OMPs of all Gram-negative bacteria and in fLuc as well. Upon mild heat treatment of fLuc and its subsequent partial unfolding, fLuc is accepted as a substrate by SurA. Of note, these intermediates served as reporter substrates to determine the activity of a […] folding chaperone. […] This interaction remains stable upon temperature reduction. Next, the temperature of the assay is reduced to room temperature and luciferase activity is subsequently measured by addition of Luciferin and ATP. In conditions without SurA, fLuc will refold into its active conformation resulting in a luminescence signal.
In short, the Luciferase based SurA activity assay was performed in SurA Activity Assay Buffer (40 mM HEPES pH 7.4, 20 mM MgSO4, 0.5 g/I BSA). SurA aliquots were thawn at RT, activated by mild heat treatment and cooled down to RT for 10 min. […] Solution A containing 10 mM ATP as well as 0.3 mM Luciferin (Promega Beetle Luciferin, Potassium Salt) in water was prepared. Luciferase working solution was prepared by diluting 1 ml Luciferase working stock (100 nM) with 9 ml assay buffer. 33 μl of the protein solution were added to every 2nd row of a well of a 384-well PS, white, flat bottom plate. […] Subsequently, 2 μl of compound in DMSO were added in quadruplicates (4 wells each of protein solution and buffer controls). These compound solutions could contain either various compounds or different dilutions of the same compound allowing screening inhibitor activity in a dose dependent manner. After compound addition, plates were incubated 15 min at RT. After this incubation, 5 μl of Luciferase working solution were added to each well. Next, the plates were incubated 25 min at 38° C. to partially unfold the Luciferase. Subsequently, the assay plate was cooled for 5 min at 4° C. followed by 10 min incubation at RT prior to luminescence measurement. Luminescence was measured in a TECAN infinite M200 pro plate reader for each well individually after injection of 10 μl Solution A.

SurA [2] = molecular target: T1, SurA; assay: Microscale thermophoresis (Tuebingen, Monolith NT.115); format: binding, E. coli; conditions: for MST score (Re-evaluation Tuebingen): re-evaluation of QHL compound remainders
Experimental: (§1) His-tagged SurA was labeled with the Monolith His-Tag Labeling Kit RED-tris-NTA (Nanotemper) according to the manufacturer's instructions.
Microscale thermophoresis measurements were performed in 40 mM HEPES pH 7.4, 0.05% Tween-20 at 25° C. with a Monolith NT.115 (NanoTemper) in standard capillaries.

SurA [3] = molecular target: T1, SurA; assay: Microscale thermophoresis at the ELF (O1); format: binding, E. coli; design: key to MST score: 1 = binder; 6 = non-binder; conditions: for MST score: score 1-6
Experimental: as §1
Microscale thermophoresis measurements at the ELF were performed as follows. Compounds were tested in 8-point curves at a top starting concentration of 100-0.39 μM. […] 12-point dose responses of reference compound were also set up and tested between runs. Final measurement conditions were 40 mM HEPES pH 7.4, 0.1% Pluronic-F127, 50 nM SurA with Monolith settings—40% excitation and 60% MST power. MST data (capillary scan and shape, initial fluorescence and MST traces) were analyzed and a score was given to each compound.

E. coli ATCC 25922 = assay: Sensitizer MIC assay (vancomycin); format: cell-based; conditions: compound concentration of 100 μM
Experimental: To test for the sensitizer properties of the compounds, the inventors then performed a sensitizer MIC assay. To this end, E. coli BW25113, E. coli JW2496-3, and E. coli ATCC 25922 inocula were prepared as described above. Each well of a 96-well plate was prefilled with a fixed compound concentration of 100 μM and a dilution series of Vancomycin ranging from […]. A sensitizing effect was defined as reduction of the MIC value of Vancomycin of the respective test strain.

HepG2 cells = assay: Cytotoxicity assay (LDH release); format: cell-based; conditions: 500 μM compound, 1 h at 37° C., some cells also say precipitate
Experimental: Cell cytotoxicity of shelf derivatives was evaluated monitoring the LDH release from HepG2 cells using the CytoTox 96@ Non-Radio Cytotoxicity Assay (Promega) according to the manufacturer's instructions. […] After incubation, 25 μl were transferred into a fresh 96-well flat clear bottom plate and mixed with 25 μl CytoTox 96@ Reagent. LDH release reactions were incubated 30 min at RT in the dark and 25 μl Stop Solution were added. LDH release was measured at 490 nm in a multiplate reader.

luciferase = luciferase (Photinus pyralis, UniProt P08659); assay: Primary assay buffer control: interference with Luciferase per se; format: biochemical, firefly; design: key: no influence on Luc activity = 0; enhances Luc activity = +; reduces Luc activity = −
Sequence of luciferase (P08659 whole entry): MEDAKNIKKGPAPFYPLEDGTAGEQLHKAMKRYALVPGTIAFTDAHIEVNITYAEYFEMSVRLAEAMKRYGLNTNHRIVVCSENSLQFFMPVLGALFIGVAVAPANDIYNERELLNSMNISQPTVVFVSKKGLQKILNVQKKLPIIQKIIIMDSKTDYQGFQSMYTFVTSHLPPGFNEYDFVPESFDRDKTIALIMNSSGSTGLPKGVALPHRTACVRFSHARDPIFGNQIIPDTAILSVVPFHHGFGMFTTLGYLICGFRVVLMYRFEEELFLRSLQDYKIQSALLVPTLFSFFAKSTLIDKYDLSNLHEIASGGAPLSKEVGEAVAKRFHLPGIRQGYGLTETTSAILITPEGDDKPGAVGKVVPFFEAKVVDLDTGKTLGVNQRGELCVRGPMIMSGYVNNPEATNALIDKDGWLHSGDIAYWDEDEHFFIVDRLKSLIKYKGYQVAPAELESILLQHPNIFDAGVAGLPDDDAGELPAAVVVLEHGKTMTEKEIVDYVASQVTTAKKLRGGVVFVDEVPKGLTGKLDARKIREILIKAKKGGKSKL
Experimental: In short, the Luciferase based SurA activity assay was performed in SurA Activity Assay Buffer (40 mM HEPES pH 7.4, 20 mM MgSO4, 0.5 g/I BSA). SurA aliquots were thawn at RT, activated by mild heat treatment and cooled down to RT for 10 min. SurA concentration was adjusted to 1.6 μM in Activity Assay Buffer (protein solution). Solution A containing 10 mM ATP as well as 0.3 mM Luciferin (Promega Beetle Luciferin, Potassium Salt) in water was prepared. Luciferase working solution was prepared by diluting 1 ml Luciferase working stock (100 nM) with 9 ml assay buffer. 33 μl of the protein solution were added to every 2nd row of a well of a 384-well PS, white, flat bottom plate. […] Subsequently, 2 μl of compound in DMSO were added in quadruplicates (4 wells each of protein solution and buffer controls). These compound solutions could contain either various compounds or different dilutions of the same compound allowing screening inhibitor activity in a dose dependent manner. After compound addition, plates were incubated 15 min at RT. After this incubation, 5 μl of Luciferase working solution were added to each well. […] Subsequently, the assay plate was cooled for 5 min at 4° C. followed by 10 min incubation at RT prior to luminescence measurement. Luminescence was measured in a TECAN infinite M200 pro plate reader for each well individually after injection of 10 μl Solution A.

SMILES | primary assay SurA (SurA [1]) | MST score (Re-evaluation Tuebingen) (SurA [2]) | Kd (SurA [2]; read-out: MST (Kd in mM)) [mM] | MST (KD) (SurA [2]; resynthesized compounds) | Kd (SurA [2]; resynthesized compounds, read-out: MST (KD)) [mM] | MST score (SurA [3]) | MIC (reduction of vancomycin MIC) (E. coli ATCC 25922) | CytoTox (HepG2 cells) | primary assay Luciferase (luciferase) | Primary Assay ICmax (SurA [1]; QHL-10 derivatives, dose response up to 125 μM, n/d: no signal detected) [µM] | Primary Assay Amplitude (SurA [1]; amplitude of signal, n/d: no signal detected) | MST (Kd in mM) (SurA [2]) | IC50 (SurA [3]; 8-point curves 100-0.39 μM, 50 nM SurA, read-out: MST pIC50 (converted)) [µM]
CN(C)c1ccc(-c2nc3cc(NC(=O)Cn4cc5ccccc5n4)ccc3[nH]2)cc1 [QHL-24] | + | inconclusive | 0.02 to 0.03 | binding | 0.02 to 0.03 | 1 | yes (reduction of the MIC for vancomycin of the E. coli ATCC 25922 strain below 256 mg/l at a compound concentration of 100 μM (yes/no)) | precipitate (7.87%) | − |  |  |  | 
NC(=O)c1nc(Cc2ccc(OCC(=O)O)cc2)[nH]c1NC(=O)c1ccc(-c2ccccc2)cc1 [Compound 2a, 2-(4-((5-([1,1′-biphenyl]-4-carboxamido)-4-carbamoyl-1H-imidazol-2-yl)methyl)phenoxy)acetic acid] | + | 2 |  | binding |  | 1 | yes (reduction of the MIC for vancomycin of the E. coli ATCC 25922 strain below 256 mg/l at a compound concentration of 100 μM (yes/no)) | 50.23% | − | 4 | high | binding | 39.8
